The text below walks through data of patent US20080207650A1, “Chemical Compounds 636” (priority 2007, published 2008).

This assay deals with recombinant Human Phosphodiesterase B2 (PDE4B2) (Homo sapiens, UniProt Q07343). In words: Human Phosphodiesterase B2 Radiometric Assay. The assay is classed as biochemical. To be noted: SPA assay, 0.1 μg/mL recombinant PDE4B2, 8 nM [3H]cyclic AMP, preincubated 30 min at 30 C, reaction 20 minutes; read-out: PDE4B2 pIC50 (converted). On the procedure: Human Phosphodiesterase B2 Radiometric Assay
Chain of recombinant Human Phosphodiesterase B2 (PDE4B2) (Q07343 1-564 isoform Q07343-2): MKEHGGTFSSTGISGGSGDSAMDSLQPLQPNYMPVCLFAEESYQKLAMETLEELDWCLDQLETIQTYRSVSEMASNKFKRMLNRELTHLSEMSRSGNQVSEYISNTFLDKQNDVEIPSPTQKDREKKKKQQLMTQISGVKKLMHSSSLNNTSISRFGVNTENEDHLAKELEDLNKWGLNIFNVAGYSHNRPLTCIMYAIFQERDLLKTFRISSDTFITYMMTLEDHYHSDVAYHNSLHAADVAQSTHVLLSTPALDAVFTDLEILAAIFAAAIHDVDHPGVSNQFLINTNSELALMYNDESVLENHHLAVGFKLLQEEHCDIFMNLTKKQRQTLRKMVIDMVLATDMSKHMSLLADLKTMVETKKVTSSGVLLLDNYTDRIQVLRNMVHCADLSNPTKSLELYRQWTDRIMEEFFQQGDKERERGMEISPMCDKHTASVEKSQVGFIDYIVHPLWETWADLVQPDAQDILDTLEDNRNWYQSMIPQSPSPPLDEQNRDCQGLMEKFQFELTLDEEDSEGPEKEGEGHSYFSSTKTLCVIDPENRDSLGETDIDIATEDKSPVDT
The assay uses recombinant Human Phosphodiesterase B2 (PDE4B2) produced in house (PrAZL0163), stored at −20° C. This assay is based on the observation that 5′AMP, the product of the reaction catalysed by PDE4, binds preferentially to yttrium silicate SPA beads (Amersham Biosciences, UK) compared to the substrate, cAMP. Compounds at the appropriate concentration were preincubated at 30 C for 30 min with an assay buffer containing 50 mM HEPES (pH 7.5), 8.3 mM MgCl2, 1.7 mM EGTA, 0.01% (w/v) Brij® 35 and 0.1 μg/mL recombinant PDE4B2. The reaction was started by the addition of [3H]cyclic AMP to give a final concentration of 8 nM, and was stopped 20 minutes after the addition of the substrate by the addition of yttrium silicate SPA beads containing 18 mM Zn SO4. Bound [3H]cyclic AMP was measured using a Topcount NXT (Packard Bioscience, UK). IC50 values (presented in Table I) were determined using Xlfit3 curve fitting, using model 205.
Turning to `NCC1CCc2nc(C(=O)N[C@H]3CC[C@@H](n4c(=O)c5cc(F)cnc5n(C5CCSCC5)c4=O)CC3)cn2C1` (stereo partly drawn) [Example 3, 6-(aminomethyl)-N-{cis-4-[6-fluoro-2,4-dioxo-1-(tetrahydro-2H-thiopyran-4-yl)-1,4-dihydropyrido[2,3-d]pyrimidin-3(2H)-yl]cyclohexyl}-5,6,7,8-tetrahydroimidazo[1,2-a]pyridine-2-carboxamide], the IC50 is 6.31 nM.
To `CN1CCN(Cc2ccc(C(=O)NC3CCC(n4c(=O)c5cc(F)cnc5n(C5CCSCC5)c4=O)CC3)cc2)CC1` (stereo not shown) [Example 6, N-[4-(9-fluoro-2,4-dioxo-5-tetrahydrothiopyran-4-yl-3,5,7-triazabicyclo[4.4.0]deca-6,8,10-trien-3-yl)cyclohexyl]-4-[(4-methylpiperazin-1-yl)methyl]benzamide] belongs 3.16 nM.
As for `O=C(CN1CCN(Cc2ccccc2)CC1)NC1CCC(n2c(=O)c3cc(F)cnc3n(C3CCSCC3)c2=O)CC1` (stereo not shown) [Example 10, 2-(4-benzylpiperazin-1-yl)-N-[4-(9-fluoro-2,4-dioxo-5-tetrahydrothiopyran-4-yl-3,5,7-triazabicyclo[4.4.0]deca-6,8,10-trien-3-yl)cyclohexyl]acetamide], the IC50 was 0.0794 nM.
Turning to `O=C(CN1CCN(C(=O)Cc2ccccc2)CC1)NC1CCC(n2c(=O)c3cc(F)cnc3n(C3CCSCC3)c2=O)CC1` (stereo not shown) [Example 24, N-[4-(9-fluoro-2,4-dioxo-5-tetrahydrothiopyran-4-yl-3,5,7-triazabicyclo[4.4.0]deca-6,8,10-trien-3-yl)cyclohexyl]-2-[4-(2-phenylacetyl)piperazin-1-yl]acetamide], the IC50 is 2 nM.
